For orientation: IC50 means the concentration that gives 50% inhibition.

Structures are written as SMILES.

The target of assay [1] is T1, HS α4β2 (α4(2)β2(3)) nAChR (Homo sapiens, UniProt P17787+P43681).
T1 construct: expressed in transfected cells; host or cells: Xenopus laevis oocytes injected with cRNA
The experiment in a line: Bath application of test compound: inhibition of ACh-evoked peak currents in Xenopus oocytes. The assay is classed as cell-based. To be noted: 30 minutes in bath. As to the method:
(§1) We have extended this approach to defined receptor subtypes expressed in Xenopus oocytes. Experiments were conducted on cells expressing HS α4β2 (α4(2)β2(3)), LS α4β2 (α4(3)β2(2)), or α7 nAChR.
(§2) cDNA: Human nAChR receptor clones and concatamers were obtained from Dr. Jon Lindstrom (University of Pennsylvania, Philadelphia Pa.). The human RIC-3 clone, obtained from Dr. Millet Treinin (Hebrew University, Jerusalem Israel), was co-injected with α7 to improve the levels and speed of receptor expression.
(§3) Oocyte preparation: Oocytes were surgically removed from mature Xenopus laevis frogs and injected with 50 nl (5-20 ng) of appropriate nAChR subunit cRNAs as described previously (Horenstein et al., 2008).
(§4) Experiments were conducted using OpusXpress 6000A (Molecular Devices, Union City Calif.) and analyzed as described previously (Papke and Papke, 2002; Horenstein et al., 2008; Papke and Stokes, 2010).
(§5) Initial experiments were run for 50 minutes after the introduction of the experimental compounds into the bath.

Assay [2] has as its target T2, LS α4β2 (α4(3)β2(2)) nAChR (Homo sapiens, UniProt P17787+P43681).
T2 construct: expressed in transfected cells; host or cells: Xenopus laevis oocytes injected with cRNA
The description is as above. The assay is classed as cell-based. To be noted: 30 minutes in bath. How it is done:
as §1, §2, §3, §4, §5

In assay [3] the target is T3, α7 nAChR (Homo sapiens, UniProt P36544).
T3 construct: expressed in transfected cells; host or cells: Xenopus laevis oocytes injected with cRNA
The experiment in a line: Bath application of test compound: modulation of ACh-evoked net charge responses in Xenopus oocytes. The assay is classed as cell-based. To be noted: 30 minutes in bath. How it is done: as §1, §2, §3, §4, §5

Another assay has as its target T4, α4(2)β2(2)α5 nAChR (Homo sapiens, UniProt P17787+P30532+P43681).
T4 construct: expressed in transfected cells; host or cells: Xenopus laevis oocytes injected with cRNA
The experiment in a line: Bath application of test compound: inhibition of ACh-evoked responses in Xenopus oocytes. The assay is classed as cell-based. To be noted: 30 minutes in bath. As to the method:
as §2, §3, §4, §5
Recently, attention has been drawn to α5 as a member of a gene cluster associated with high risk for cancer and heavy smoking (Saccone et al., 2007). In the periphery, α5 is most likely expressed in association with the other members of its gene cluster, α3 and β4.

In another assay the target is T5, α4(2)β2(3) nAChR (Homo sapiens, UniProt P17787+P43681).
T5 construct: expressed in transfected cells; host or cells: Xenopus laevis oocytes injected with cRNA
Nature of the assay: Bupropion co-applied with ACh: inhibition of ACh-evoked responses, oocytes. The assay is classed as cell-based. The settings on record: co-applied with 10 μM ACh. As to the method: as §5

The next assay concerns the target T6, α4(3)β2(2) nAChR (Homo sapiens, UniProt P17787+P43681).
T6 construct: expressed in transfected cells; host or cells: Xenopus laevis oocytes injected with cRNA
The description is as above. Type of assay: cell-based. To be noted: co-applied with 30 μM ACh. As to the method: as §5

Assay [4] addresses T3, α7 nAChR. The assay is described as above. Type of assay: cell-based. How it is done: as §5
The next assay concerns the target T7, α4β2α5 nAChR (Homo sapiens, UniProt P17787+P30532+P43681).
T7 construct: expressed in transfected cells; host or cells: Xenopus laevis oocytes injected with cRNA
The assay is described as above. The assay is classed as cell-based. To be noted: co-applied with 3 μM ACh.

For assay [5], the system named is α4(3)β2(2), α4(2)β2(3), α4(2)β2(2)α5 and α7 nAChR. Nature of the assay: Test of bupropion for receptor activation, oocytes. Type of assay: cell-based, human. The settings on record: 300 nM to 300 μM.

T3 sequence (P36544 23-502): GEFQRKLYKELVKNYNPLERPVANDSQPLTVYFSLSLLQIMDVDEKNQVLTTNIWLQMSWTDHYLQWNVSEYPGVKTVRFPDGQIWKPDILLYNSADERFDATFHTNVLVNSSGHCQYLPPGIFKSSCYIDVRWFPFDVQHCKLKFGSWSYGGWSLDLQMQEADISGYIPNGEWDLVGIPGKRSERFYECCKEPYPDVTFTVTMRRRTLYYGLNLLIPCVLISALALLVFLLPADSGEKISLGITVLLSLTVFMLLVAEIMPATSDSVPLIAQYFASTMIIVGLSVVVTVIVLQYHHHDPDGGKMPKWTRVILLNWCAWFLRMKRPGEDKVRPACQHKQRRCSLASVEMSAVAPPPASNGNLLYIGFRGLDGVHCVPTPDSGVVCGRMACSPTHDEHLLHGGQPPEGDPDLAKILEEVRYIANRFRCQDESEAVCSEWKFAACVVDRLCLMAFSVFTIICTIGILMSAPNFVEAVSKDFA
T5 sequence (P17787 26-502): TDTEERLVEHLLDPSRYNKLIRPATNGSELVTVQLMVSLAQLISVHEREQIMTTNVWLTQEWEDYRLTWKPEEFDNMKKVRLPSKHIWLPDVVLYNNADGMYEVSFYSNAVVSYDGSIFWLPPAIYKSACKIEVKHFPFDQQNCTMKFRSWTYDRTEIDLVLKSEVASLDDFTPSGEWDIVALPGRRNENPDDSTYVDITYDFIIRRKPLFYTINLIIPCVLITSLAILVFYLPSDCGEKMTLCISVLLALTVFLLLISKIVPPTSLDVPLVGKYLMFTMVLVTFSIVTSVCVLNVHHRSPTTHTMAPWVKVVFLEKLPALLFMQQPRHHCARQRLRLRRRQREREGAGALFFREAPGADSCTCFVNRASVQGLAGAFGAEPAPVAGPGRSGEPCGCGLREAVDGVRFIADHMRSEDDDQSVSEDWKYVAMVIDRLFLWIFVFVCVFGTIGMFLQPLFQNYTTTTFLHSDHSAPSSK
T5 sequence (P43681 29-627 limits assumed): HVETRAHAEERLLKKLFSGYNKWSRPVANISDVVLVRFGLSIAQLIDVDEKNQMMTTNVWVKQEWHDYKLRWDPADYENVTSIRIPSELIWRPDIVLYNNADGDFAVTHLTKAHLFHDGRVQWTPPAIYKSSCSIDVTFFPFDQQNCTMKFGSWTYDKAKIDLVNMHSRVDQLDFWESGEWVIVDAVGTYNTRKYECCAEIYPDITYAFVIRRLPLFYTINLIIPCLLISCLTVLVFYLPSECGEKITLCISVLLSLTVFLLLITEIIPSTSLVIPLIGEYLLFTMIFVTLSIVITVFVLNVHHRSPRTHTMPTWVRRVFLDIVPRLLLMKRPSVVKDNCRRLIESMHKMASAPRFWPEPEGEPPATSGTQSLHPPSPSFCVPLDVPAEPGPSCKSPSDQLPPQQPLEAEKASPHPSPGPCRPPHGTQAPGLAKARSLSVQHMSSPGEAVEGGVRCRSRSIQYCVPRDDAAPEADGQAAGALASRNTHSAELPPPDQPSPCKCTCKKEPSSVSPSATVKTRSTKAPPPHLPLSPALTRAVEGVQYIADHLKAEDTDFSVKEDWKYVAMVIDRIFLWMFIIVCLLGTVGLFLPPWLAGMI
T5 sequence (P17787 26-502): as the sequence (P17787 26-502) above
T7 sequence (P17787 26-502): as above
T7 sequence (P43681 29-627 limits assumed): as the sequence (P43681 29-627 limits assumed) above
T7 sequence (P30532 23-468): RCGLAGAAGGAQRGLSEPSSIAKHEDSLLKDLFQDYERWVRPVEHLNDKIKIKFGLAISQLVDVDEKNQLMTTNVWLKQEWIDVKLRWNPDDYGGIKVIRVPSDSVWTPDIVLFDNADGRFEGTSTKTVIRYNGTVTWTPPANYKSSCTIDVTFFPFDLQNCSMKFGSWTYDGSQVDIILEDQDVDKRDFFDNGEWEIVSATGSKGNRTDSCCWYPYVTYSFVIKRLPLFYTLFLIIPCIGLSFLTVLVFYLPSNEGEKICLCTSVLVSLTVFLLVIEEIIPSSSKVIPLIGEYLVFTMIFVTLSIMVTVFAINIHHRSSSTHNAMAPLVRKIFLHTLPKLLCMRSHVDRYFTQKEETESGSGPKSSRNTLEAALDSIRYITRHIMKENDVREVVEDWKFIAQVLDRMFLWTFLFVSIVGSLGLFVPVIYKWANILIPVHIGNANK
T2 sequence (P17787 26-502): as the sequence (P17787 26-502) above
T2 sequence (P43681 29-627 limits assumed): as the sequence (P43681 29-627 limits assumed) above
T2 sequence (P43681 29-627 limits assumed): as above
T4 sequence (P17787 26-502): as the sequence (P17787 26-502) above
T4 sequence (P43681 29-627 limits assumed): as the sequence (P43681 29-627 limits assumed) above
T4 sequence (P30532 23-468): as the sequence (P30532 23-468) above
T1 sequence (P17787 26-502): as the sequence (P17787 26-502) above
T1 sequence (P43681 29-627 limits assumed): as the sequence (P43681 29-627 limits assumed) above
T1 sequence (P17787 26-502): as the sequence (P17787 26-502) above
T6 sequence (P17787 26-502): as above
T6 sequence (P43681 29-627 limits assumed): as the sequence (P43681 29-627 limits assumed) above
T6 sequence (P43681 29-627 limits assumed): as above

For `CC(NC(C)(C)C)C(=O)c1cccc(Cl)c1` (centres unmarked) [bupropion], the “Bath application n (Hill slope of inhibition)” value in assay [1] was −0.40 ± 0.10; in assay [2] it was −1.2 ± 0.4; on α7 nAChR [3], −1.5 ± 0.5; on α4(2)β2(2)α5 nAChR, −0.47 ± 0.09. Also, the IC50 was 16 ± 3 µM on α7 nAChR [3] (read-out: Bath application IC50) and 46 ± 7 µM at α7 nAChR [4] (read-out: Co-application IC50). The “Co-application n (Hill slope of inhibition)” value at α4(2)β2(3) nAChR is listed as −0.80 ± 0.05; at α4(3)β2(2) nAChR it was −0.93 ± 0.11; at α7 nAChR [4] (co-applied with 60 μM ACh), −0.74 ± 0.09; at α4β2α5 nAChR, −0.70 ± 0.04. Moreover, in [5], the “receptor activation by bupropion” value is given as “no activation above our level of detection”.

The values are drawn from US9233109B2, “Compositions, methods of use, and methods of treatment” (UNIVERSITY OF FLORIDA RESEARCH FOUNDATION, INC., priority 2010, dated 2016).
